Data from the NIST ThermoML archive (doi:10.1021/je050021e).
± gives the expanded uncertainty stated by the source.

Assay: xn = mol fraction of the nth substance listed
Conditions: Liquid

COCCOCCOCCOC [2,5,8,11-tetraoxadodecane] + O
Conditions | mass density, 101.3 kPa [kg/m3] | viscosity, 101 kPa [mPa·s]
303.15 K, x1 = 0.0198 | 1004.97 ± 0.1 | 1.38 ± 0.03
303.15 K, x1 = 0.05 | 1015.35 ± 0.13 | 2.38 ± 0.05
303.15 K, x1 = 0.07 | 1019.1 ± 0.14 | 2.99 ± 0.07
303.15 K, x1 = 0.1 | 1020.68 ± 0.17 | 3.6 ± 0.08
303.15 K, x1 = 0.2 | 1012.62 ± 0.26 | 3.76 ± 0.08
303.15 K, x1 = 0.3 | 1002.98 ± 0.35 | 3.13 ± 0.07
303.15 K, x1 = 0.4 | 995.48 ± 0.44 | 2.67 ± 0.06
303.15 K, x1 = 0.5 | 990.09 ± 0.53 | 2.38 ± 0.05
303.15 K, x1 = 0.6 | 985.94 ± 0.62 | 2.14 ± 0.05
303.15 K, x1 = 0.7 | 982.66 ± 0.72 | 1.99 ± 0.05
303.15 K, x1 = 0.8 | 979.8 ± 0.81 | 1.9 ± 0.05
303.15 K, x1 = 0.9 | 977.61 ± 0.91 | 1.82 ± 0.04
303.15 K, x1 = 1 | 975.86 ± 1 | 1.77 ± 0.04
313.15 K, x1 = 0.0198 | 1000.31 ± 0.1 | 1.09 ± 0.03
313.15 K, x1 = 0.05 | 1008.77 ± 0.12 | 1.79 ± 0.04
313.15 K, x1 = 0.07 | 1011.54 ± 0.14 | 2.19 ± 0.05
313.15 K, x1 = 0.1 | 1012.19 ± 0.17 | 2.6 ± 0.06
313.15 K, x1 = 0.2 | 1003.21 ± 0.25 | 2.8 ± 0.06
313.15 K, x1 = 0.3 | 993.51 ± 0.34 | 2.39 ± 0.05
313.15 K, x1 = 0.4 | 985.98 ± 0.43 | 2.09 ± 0.05
313.15 K, x1 = 0.5 | 980.57 ± 0.53 | 1.94 ± 0.04
313.15 K, x1 = 0.6 | 976.37 ± 0.62 | 1.73 ± 0.04
313.15 K, x1 = 0.7 | 973.09 ± 0.71 | 1.65 ± 0.04
313.15 K, x1 = 0.8 | 970.25 ± 0.8 | 1.58 ± 0.04
313.15 K, x1 = 0.9 | 968.06 ± 0.9 | 1.51 ± 0.04
313.15 K, x1 = 1 | 966.36 ± 0.99 | 1.48 ± 0.04
323.15 K, x1 = 0.0198 | 995.02 ± 0.1 | 0.876 ± 0.021
323.15 K, x1 = 0.05 | 1001.79 ± 0.12 | 1.39 ± 0.03
323.15 K, x1 = 0.07 | 1003.67 ± 0.14 | 1.67 ± 0.04
323.15 K, x1 = 0.1 | 1003.47 ± 0.16 | 1.96 ± 0.04
323.15 K, x1 = 0.2 | 993.71 ± 0.25 | 2.1 ± 0.05
323.15 K, x1 = 0.3 | 983.93 ± 0.34 | 1.88 ± 0.04
323.15 K, x1 = 0.4 | 976.37 ± 0.43 | 1.69 ± 0.04
323.15 K, x1 = 0.5 | 970.93 ± 0.52 | 1.6 ± 0.04
323.15 K, x1 = 0.6 | 966.77 ± 0.61 | 1.44 ± 0.03
323.15 K, x1 = 0.7 | 963.5 ± 0.71 | 1.37 ± 0.03
323.15 K, x1 = 0.8 | 960.68 ± 0.8 | 1.32 ± 0.03
323.15 K, x1 = 0.9 | 958.5 ± 0.89 | 1.27 ± 0.03
323.15 K, x1 = 1 | 956.85 ± 0.98 | 1.26 ± 0.03
333.15 K, x1 = 0.0198 | 989.18 ± 0.1 | 0.728 ± 0.018
333.15 K, x1 = 0.05 | 994.39 ± 0.12 | –
333.15 K, x1 = 0.07 | 995.46 ± 0.14 | 1.33 ± 0.03
333.15 K, x1 = 0.1 | 994.52 ± 0.16 | 1.53 ± 0.04
333.15 K, x1 = 0.2 | 984.05 ± 0.25 | 1.66 ± 0.038
333.15 K, x1 = 0.3 | 974.23 ± 0.34 | 1.52 ± 0.04
333.15 K, x1 = 0.4 | 966.69 ± 0.43 | 1.4 ± 0.03
333.15 K, x1 = 0.5 | 961.2 ± 0.52 | 1.3 ± 0.03
333.15 K, x1 = 0.6 | 957.06 ± 0.61 | 1.21 ± 0.03
333.15 K, x1 = 0.7 | 953.78 ± 0.7 | 1.16 ± 0.03
333.15 K, x1 = 0.8 | 950.98 ± 0.79 | 1.13 ± 0.03
333.15 K, x1 = 0.9 | 948.9 ± 0.88 | 1.1 ± 0.03
333.15 K, x1 = 1 | 947.32 ± 0.97 | 1.08 ± 0.03
343.15 K, x1 = 0.0198 | 982.78 ± 0.11 | 0.617 ± 0.016
343.15 K, x1 = 0.05 | 986.6 ± 0.12 | 0.922 ± 0.022
343.15 K, x1 = 0.07 | 986.96 ± 0.14 | 1.08 ± 0.03
343.15 K, x1 = 0.1 | 985.33 ± 0.16 | 1.24 ± 0.03
343.15 K, x1 = 0.2 | 974.27 ± 0.25 | 1.34 ± 0.03
343.15 K, x1 = 0.3 | 964.41 ± 0.34 | 1.26 ± 0.03
343.15 K, x1 = 0.4 | 956.86 ± 0.43 | 1.17 ± 0.03
343.15 K, x1 = 0.5 | 951.36 ± 0.52 | 1.1 ± 0.03
343.15 K, x1 = 0.6 | 947.25 ± 0.6 | 1.04 ± 0.03
343.15 K, x1 = 0.7 | 943.99 ± 0.69 | 0.998 ± 0.025
343.15 K, x1 = 0.8 | 941.33 ± 0.78 | 0.976 ± 0.025
343.15 K, x1 = 0.9 | 939.3 ± 0.87 | 0.952 ± 0.024
343.15 K, x1 = 1 | 937.72 ± 0.96 | 0.945 ± 0.025

CC(=O)N1CCOCC1 [4-acetylmorpholine] + O
101 kPa
Conditions | mass density [kg/m3] | viscosity [mPa·s]
298.15 K, x1 = 0.05 | 1034.97 ± 0.56 | 1.79 ± 0.05
298.15 K, x1 = 0.07 | 1046.13 ± 0.57 | 2.22 ± 0.07
298.15 K, x1 = 0.1 | 1060.06 ± 0.57 | 3.22 ± 0.09
298.15 K, x1 = 0.2 | 1087.71 ± 0.59 | 5.96 ± 0.16
298.15 K, x1 = 0.3 | 1100.16 ± 0.6 | 8.7 ± 0.22
298.15 K, x1 = 0.4 | 1106 ± 0.6 | 10.1 ± 0.3
298.15 K, x1 = 0.5 | 1108.55 ± 0.61 | 10.4 ± 0.3
298.15 K, x1 = 0.6 | 1109.77 ± 0.61 | 10.5 ± 0.3
298.15 K, x1 = 0.7 | 1110.29 ± 0.61 | 9.61 ± 0.24
298.15 K, x1 = 0.8 | 1110.46 ± 0.61 | 9.18 ± 0.24
298.15 K, x1 = 0.9 | 1110.4 ± 0.61 | 8.79 ± 0.23
298.15 K, x1 = 1 | 1110.33 ± 0.61 | 8.48 ± 0.23
303.15 K, x1 = 0.05 | 1032.47 ± 0.56 | 1.56 ± 0.05
303.15 K, x1 = 0.07 | 1043.32 ± 0.56 | 1.96 ± 0.06
303.15 K, x1 = 0.1 | 1056.85 ± 0.57 | 2.75 ± 0.08
303.15 K, x1 = 0.2 | 1083.85 ± 0.59 | 4.94 ± 0.14
303.15 K, x1 = 0.3 | 1095.95 ± 0.6 | 7.01 ± 0.18
303.15 K, x1 = 0.4 | 1101.68 ± 0.6 | 8.02 ± 0.2
303.15 K, x1 = 0.5 | 1104.19 ± 0.6 | 8.29 ± 0.21
303.15 K, x1 = 0.6 | 1105.39 ± 0.6 | 8.48 ± 0.22
303.15 K, x1 = 0.7 | 1105.93 ± 0.6 | 7.89 ± 0.21
303.15 K, x1 = 0.8 | 1106.12 ± 0.6 | 7.56 ± 0.2
303.15 K, x1 = 0.9 | 1106.08 ± 0.6 | 7.3 ± 0.2
303.15 K, x1 = 1 | 1106 ± 0.6 | 7.1 ± 0.2
313.15 K, x1 = 0.05 | 1027.12 ± 0.56 | 1.23 ± 0.04
313.15 K, x1 = 0.07 | 1037.36 ± 0.56 | 1.52 ± 0.05
313.15 K, x1 = 0.1 | 1050.17 ± 0.57 | 2.1 ± 0.06
313.15 K, x1 = 0.2 | 1075.73 ± 0.58 | 3.55 ± 0.1
313.15 K, x1 = 0.3 | 1087.43 ± 0.59 | 4.8 ± 0.14
313.15 K, x1 = 0.4 | 1092.98 ± 0.6 | 5.47 ± 0.15
313.15 K, x1 = 0.5 | 1095.41 ± 0.6 | 5.68 ± 0.16
313.15 K, x1 = 0.6 | 1096.65 ± 0.6 | 5.77 ± 0.16
313.15 K, x1 = 0.7 | 1097.23 ± 0.6 | 5.56 ± 0.16
313.15 K, x1 = 0.8 | 1097.4 ± 0.6 | 5.42 ± 0.15
313.15 K, x1 = 0.9 | 1097.41 ± 0.6 | 5.28 ± 0.15
313.15 K, x1 = 1 | 1097.35 ± 0.6 | 5.18 ± 0.15
323.15 K, x1 = 0.05 | 1021.29 ± 0.55 | 0.998 ± 0.032
323.15 K, x1 = 0.07 | 1031.03 ± 0.56 | 1.21 ± 0.04
323.15 K, x1 = 0.1 | 1043.19 ± 0.56 | 1.65 ± 0.05
323.15 K, x1 = 0.2 | 1067.57 ± 0.58 | 2.68 ± 0.08
323.15 K, x1 = 0.3 | 1078.79 ± 0.59 | 3.51 ± 0.1
323.15 K, x1 = 0.4 | 1084.2 ± 0.59 | 3.96 ± 0.11
323.15 K, x1 = 0.5 | 1086.6 ± 0.59 | 4.13 ± 0.12
323.15 K, x1 = 0.6 | 1087.84 ± 0.59 | 4.4 ± 0.13
323.15 K, x1 = 0.7 | 1088.43 ± 0.59 | 4.13 ± 0.12
323.15 K, x1 = 0.8 | 1088.71 ± 0.59 | 4.06 ± 0.12
323.15 K, x1 = 0.9 | 1088.78 ± 0.59 | 4 ± 0.12
323.15 K, x1 = 1 | 1088.74 ± 0.59 | 3.96 ± 0.12
333.15 K, x1 = 0.05 | 1015.01 ± 0.55 | 0.857 ± 0.028
333.15 K, x1 = 0.07 | 1024.27 ± 0.55 | 1.04 ± 0.03
333.15 K, x1 = 0.1 | 1035.89 ± 0.56 | 1.24 ± 0.04
333.15 K, x1 = 0.2 | 1059.2 ± 0.57 | 2.05 ± 0.06
333.15 K, x1 = 0.3 | 1069.99 ± 0.58 | 2.66 ± 0.08
333.15 K, x1 = 0.4 | 1075.32 ± 0.58 | 3 ± 0.09
333.15 K, x1 = 0.5 | 1077.66 ± 0.58 | 3.13 ± 0.09
333.15 K, x1 = 0.6 | 1078.93 ± 0.59 | 3.41 ± 0.1
333.15 K, x1 = 0.7 | 1079.63 ± 0.59 | 3.18 ± 0.09
333.15 K, x1 = 0.8 | 1079.97 ± 0.59 | 3.17 ± 0.09
333.15 K, x1 = 0.9 | 1080.1 ± 0.59 | 3.14 ± 0.09
333.15 K, x1 = 1 | 1080.14 ± 0.59 | 3.12 ± 0.1
343.15 K, x1 = 0.05 | 1008.29 ± 0.54 | 0.743 ± 0.025
343.15 K, x1 = 0.07 | 1017.17 ± 0.55 | 0.861 ± 0.028
343.15 K, x1 = 0.1 | 1028.29 ± 0.55 | 1.03 ± 0.03
343.15 K, x1 = 0.2 | 1050.63 ± 0.57 | 1.66 ± 0.05
343.15 K, x1 = 0.3 | 1061.11 ± 0.57 | 2.09 ± 0.06
343.15 K, x1 = 0.4 | 1066.32 ± 0.58 | 2.34 ± 0.07
343.15 K, x1 = 0.5 | 1068.66 ± 0.58 | 2.46 ± 0.07
343.15 K, x1 = 0.6 | 1070 ± 0.58 | 2.59 ± 0.08
343.15 K, x1 = 0.7 | 1070.82 ± 0.58 | 2.54 ± 0.08
343.15 K, x1 = 0.8 | 1071.21 ± 0.58 | 2.53 ± 0.08
343.15 K, x1 = 0.9 | 1071.43 ± 0.58 | 2.54 ± 0.08
343.15 K, x1 = 1 | 1071.55 ± 0.58 | 2.55 ± 0.08
